US20260022142A1, “MACROCYCLIC IMMUNOMODULATORS” (Bristol-Myers Squibb Company, priority 2022, published 2026)
pIC50: −log10 of the molar value. Bridge positions count the residues as written; N and C are the ends. Square brackets hold non-standard residues; d marks the D form. Peptide text beside a SMILES is read from it. * marks the point of attachment. Phe(3,4,5-F3) = N[C@@H](Cc1cc(F)c(F)c(F)c1)C(=O)O; Bip = N[C@@H](Cc1ccc(-c2ccccc2)cc1)C(=O)O; Phe(3-CN) = N#Cc1cccc(C[C@H](N)C(=O)O)c1; Phe(3-Me) = Cc1cccc(C[C@H](N)C(=O)O)c1; Val(3-OH) = CC(C)(O)[C@H](N)C(=O)O; 4Pal = N[C@@H](Cc1ccncc1)C(=O)O; Aad = N[C@@H](CCCC(=O)O)C(=O)O; Cha = N[C@@H](CC1CCCCC1)C(=O)O; aThr = C[C@H](O)[C@H](N)C(=O)O; Carboxymethyl = O=C(O)C*; Orn = NCCC[C@H](N)C(=O)O; Aun = NCCCCCCCCCCC(=O)O; Dab = NCC[C@H](N)C(=O)O; Nva = CCC[C@H](N)C(=O)O

Molecular target: T1, PD-1/PD-L1 interaction (PE-labeled human PD-L1-Ig binding to Jurkat cell line over-expressing human PD-1) (Homo sapiens, UniProt Q15116)
T1 construct: expressed in transfected cells; host or cells: Jurkat
Assay: Jurkat-PD-1 Cell Binding High-Content Screening Assay (CBA)
Format: cell-based
Conditions: Jurkat cell line over-expressing human PD-1; PE-labeled PD-L1-Ig 20 nM final; read-out: Jurkat hPD1-PDL1 IC50
Method in brief: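 First, compound is added to PD-1-expressing Jurkat cells in serum-containing DMEM and left 2 h at 37° C. Next, PE-conjugated PD-L1-Ig is introduced at 20 nM final concentration for 1 hour. Finally, cells are fixed in 4% paraformaldehyde with Hoechst 33342, washed and imaged.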

T1 sequence (Q15116 25-288): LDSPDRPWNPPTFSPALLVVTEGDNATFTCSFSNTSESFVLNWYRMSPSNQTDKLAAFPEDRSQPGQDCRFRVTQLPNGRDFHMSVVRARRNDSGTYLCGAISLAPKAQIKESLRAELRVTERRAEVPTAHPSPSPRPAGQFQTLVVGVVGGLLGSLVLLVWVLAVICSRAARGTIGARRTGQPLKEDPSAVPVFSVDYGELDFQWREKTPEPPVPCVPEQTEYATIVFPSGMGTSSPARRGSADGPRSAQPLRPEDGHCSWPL

pIC50	Compound
7.93	Cc1cccc(C[C@@H]2NC(=O)[C@H](CC(=O)O)NC(=O)[C@H](Cc3cccc(C#N)c3)NC(=O)[C@H](Cc3ccncc3)NC(=O)CSC[C@@H](C(=O)N[C@@H](CCN)C(=O)NCCCCCCCCCCC(=O)O)NC(=O)[C@H](CO)NC(=O)[C@H](C(C)(C)O)NC(=O)[C@H](CC3CCCCC3)NC(=O)[C@H](CCN)NC(=O)[C@@H](CC(C)C)NC(=O)[C@H](CCCN)NC(=O)[C@H](Cc3ccc(OCC(=O)O)cc3)NC(=O)[C@H](Cc3ccc(-c4ccccc4)cc3)NC(=O)[C@H](Cc3ccc(OCC(=O)O)cc3)NC2=O)c1 [Compound 2195] ({CH2CO}-[4Pal][Phe(3-CN)]D[Phe(3-Me)]Y(Carboxymethyl)[Bip]Y(Carboxymethyl)[Orn][dL][Dab][Cha][Val(3-OH)]SC[Dab][Aun]-OH; thioether N-14)
7.61	Cc1cccc(C[C@@H]2NC(=O)[C@H](CC(=O)O)NC(=O)[C@H](Cc3cccc(C#N)c3)NC(=O)[C@H]([C@@H](C)O)NC(=O)CSC[C@@H](C(=O)N[C@@H](CCN)C(=O)NCCCCCCCCCCC(=O)O)NC(=O)[C@H](CO)NC(=O)[C@H](C(C)(C)O)NC(=O)[C@H](CC3CCCCC3)NC(=O)[C@H](CCN)NC(=O)[C@@H](CC(C)C)NC(=O)[C@H](CCCN)NC(=O)[C@H](Cc3ccc(OCC(=O)O)cc3)NC(=O)[C@H](Cc3ccc(-c4ccccc4)cc3)NC(=O)[C@H](Cc3ccc(OCC(=O)O)cc3)NC2=O)c1 [Compound 2196] ({CH2CO}-T[Phe(3-CN)]D[Phe(3-Me)]Y(Carboxymethyl)[Bip]Y(Carboxymethyl)[Orn][dL][Dab][Cha][Val(3-OH)]SC[Dab][Aun]-OH; thioether N-14)
7.82	COc1ccc(C[C@@H]2NC(=O)[C@H](Cc3ccncc3)NC(=O)CSC[C@@H](C(=O)N[C@@H](CCN)C(=O)NCCCCCCCCCCC(=O)O)NC(=O)[C@H](CO)NC(=O)[C@H](C(C)(C)O)NC(=O)[C@H](CC3CCCCC3)NC(=O)[C@H](CCN)NC(=O)[C@@H](CC(C)C)NC(=O)[C@H](CCCN)NC(=O)[C@H](Cc3ccc(OCC(=O)O)cc3)NC(=O)[C@H](Cc3ccc(-c4ccccc4)cc3)NC(=O)[C@H](Cc3ccc(OCC(=O)O)cc3)NC(=O)[C@H](Cc3cccc(C)c3)NC(=O)[C@H](CC(=O)O)NC2=O)cc1 [Compound 2197] ({CH2CO}-[4Pal]Y(Me)D[Phe(3-Me)]Y(Carboxymethyl)[Bip]Y(Carboxymethyl)[Orn][dL][Dab][Cha][Val(3-OH)]SC[Dab][Aun]-OH; thioether N-14)
7.32	Cc1cccc(C[C@@H]2NC(=O)[C@H](CC(=O)O)NC(=O)[C@H](CCCC(=O)O)NC(=O)[C@H]([C@@H](C)O)NC(=O)CSC[C@@H](C(=O)N[C@@H](CCN)C(=O)NCCCCCCCCCCC(=O)O)NC(=O)[C@H](CO)NC(=O)[C@H](C(C)(C)O)NC(=O)[C@H](CC3CCCCC3)NC(=O)[C@H](CCN)NC(=O)[C@@H](CC(C)C)NC(=O)[C@H](CCCN)NC(=O)[C@H](Cc3ccc(OCC(=O)O)cc3)NC(=O)[C@H](Cc3ccc(-c4ccccc4)cc3)NC(=O)[C@H](Cc3ccc(OCC(=O)O)cc3)NC2=O)c1 [Compound 2198] ({CH2CO}-T[Aad]D[Phe(3-Me)]Y(Carboxymethyl)[Bip]Y(Carboxymethyl)[Orn][dL][Dab][Cha][Val(3-OH)]SC[Dab][Aun]-OH; thioether N-14)
7.30	Cc1cccc(C[C@@H]2NC(=O)[C@H](CC(=O)O)NC(=O)[C@H](Cc3ccc(OCC(=O)O)cc3)NC(=O)[C@H](Cc3cc(F)c(F)c(F)c3)NC(=O)CSC[C@@H](C(=O)N[C@@H](CCN)C(=O)NCCCCCCCCCCC(=O)O)NC(=O)[C@H](CO)NC(=O)[C@H](C(C)(C)O)NC(=O)[C@H](CC3CCCCC3)NC(=O)[C@H](CCN)NC(=O)[C@@H](CC(C)C)NC(=O)[C@H](CCCN)NC(=O)[C@H](Cc3ccc(OCC(=O)O)cc3)NC(=O)[C@H](Cc3ccc(-c4ccccc4)cc3)NC(=O)[C@H](Cc3ccc(OCC(=O)O)cc3)NC2=O)c1 [Compound 2199] ({CH2CO}-[Phe(3,4,5-F3)]Y(Carboxymethyl)D[Phe(3-Me)]Y(Carboxymethyl)[Bip]Y(Carboxymethyl)[Orn][dL][Dab][Cha][Val(3-OH)]SC[Dab][Aun]-OH; thioether N-14)
7.54	Cc1cccc(C[C@@H]2NC(=O)[C@H](CC(=O)O)NC(=O)[C@H](Cc3cc(F)c(F)c(F)c3)NC(=O)[C@H](Cc3ccncc3)NC(=O)CSC[C@@H](C(=O)N[C@@H](CCN)C(=O)NCCCCCCCCCCC(=O)O)NC(=O)[C@H](CO)NC(=O)[C@H](C(C)(C)O)NC(=O)[C@H](CC3CCCCC3)NC(=O)[C@H](CCN)NC(=O)[C@@H](CC(C)C)NC(=O)[C@H](CCCN)NC(=O)[C@H](Cc3ccc(OCC(=O)O)cc3)NC(=O)[C@H](Cc3ccc(-c4ccccc4)cc3)NC(=O)[C@H](Cc3ccc(OCC(=O)O)cc3)NC2=O)c1 [Compound 2200] ({CH2CO}-[4Pal][Phe(3,4,5-F3)]D[Phe(3-Me)]Y(Carboxymethyl)[Bip]Y(Carboxymethyl)[Orn][dL][Dab][Cha][Val(3-OH)]SC[Dab][Aun]-OH; thioether N-14)
7.11	CC(C)C[C@H]1NC(=O)[C@H](CCCN)NC(=O)[C@H](Cc2ccc(OCC(=O)O)cc2)NC(=O)[C@H](Cc2ccc(-c3ccccc3)cc2)NC(=O)[C@H](Cc2ccc(OCC(=O)O)cc2)NC(=O)[C@H](Cc2cc(F)c(F)c(F)c2)NC(=O)[C@H](CC(=O)O)NC(=O)[C@H](Cc2ccc(OCC(=O)O)cc2)NC(=O)[C@H](Cc2ccncc2)NC(=O)CSC[C@@H](C(=O)N[C@@H](CCN)C(=O)NCCCCCCCCCCC(=O)O)NC(=O)[C@H](CO)NC(=O)[C@H](C(C)(C)O)NC(=O)[C@H](CC2CCCCC2)NC(=O)[C@H](CCN)NC1=O [Compound 2201] ({CH2CO}-[4Pal]Y(Carboxymethyl)D[Phe(3,4,5-F3)]Y(Carboxymethyl)[Bip]Y(Carboxymethyl)[Orn][dL][Dab][Cha][Val(3-OH)]SC[Dab][Aun]-OH; thioether N-14)
7.59	Cc1cccc(C[C@@H]2NC(=O)[C@H](CC(=O)O)NC(=O)[C@H](Cc3ccc(OCC(=O)O)cc3)NC(=O)[C@H](Cc3ccncc3)NC(=O)CSC[C@@H](C(=O)N[C@@H](CCN)C(=O)NCCCCCCCCCCC(=O)O)NC(=O)[C@H](CO)NC(=O)[C@H](C(C)(C)O)NC(=O)[C@H](CC3CCCCC3)NC(=O)[C@H](CCN)NC(=O)[C@@H](CC(C)C)NC(=O)[C@H](CCCN)NC(=O)[C@H](Cc3ccc(OCC(=O)O)cc3)NC(=O)[C@H](Cc3ccc(-c4ccccc4)cc3)NC(=O)[C@H](Cc3cc(F)c(F)c(F)c3)NC2=O)c1 [Compound 2202] ({CH2CO}-[4Pal]Y(Carboxymethyl)D[Phe(3-Me)][Phe(3,4,5-F3)][Bip]Y(Carboxymethyl)[Orn][dL][Dab][Cha][Val(3-OH)]SC[Dab][Aun]-OH; thioether N-14)
7.38	Cc1cccc(C[C@@H]2NC(=O)[C@H](CC(=O)O)NC(=O)[C@H](Cc3ccc(OCC(=O)O)cc3)NC(=O)[C@H](Cc3ccncc3)NC(=O)CSC[C@@H](C(=O)N[C@@H](CCN)C(=O)NCCCCCCCCCCC(=O)O)NC(=O)[C@H](CO)NC(=O)[C@H](C(C)(C)O)NC(=O)[C@H](CC3CCCCC3)NC(=O)[C@H](CCN)NC(=O)[C@@H](CC(C)C)NC(=O)[C@H](CCCN)NC(=O)[C@H](Cc3cc(F)c(F)c(F)c3)NC(=O)[C@H](Cc3ccc(-c4ccccc4)cc3)NC(=O)[C@H](Cc3ccc(OCC(=O)O)cc3)NC2=O)c1 [Compound 2203] ({CH2CO}-[4Pal]Y(Carboxymethyl)D[Phe(3-Me)]Y(Carboxymethyl)[Bip][Phe(3,4,5-F3)][Orn][dL][Dab][Cha][Val(3-OH)]SC[Dab][Aun]-OH; thioether N-14)
7.97	CCC[C@@H]1NC(=O)CSC[C@@H](C(=O)N[C@@H](CCN)C(=O)NCCCCCCCCCCC(=O)O)NC(=O)[C@H](CO)NC(=O)[C@H](C(C)(C)O)NC(=O)[C@H](CC2CCCCC2)NC(=O)[C@H](CCN)NC(=O)[C@@H](CC(C)C)NC(=O)[C@H](CCCN)NC(=O)[C@H](Cc2ccc(OCC(=O)O)cc2)NC(=O)[C@H](Cc2ccc(-c3ccccc3)cc2)NC(=O)[C@H](Cc2ccc(OCC(=O)O)cc2)NC(=O)[C@H](Cc2cccc(C)c2)NC(=O)[C@H](CC(=O)O)NC(=O)[C@H](Cc2ccc(OCC(=O)O)cc2)NC1=O [Compound 2204] ({CH2CO}-[Nva]Y(Carboxymethyl)D[Phe(3-Me)]Y(Carboxymethyl)[Bip]Y(Carboxymethyl)[Orn][dL][Dab][Cha][Val(3-OH)]SC[Dab][Aun]-OH; thioether N-14)
7.90	Cc1cccc(C[C@@H]2NC(=O)[C@H](CC(=O)O)NC(=O)[C@H](Cc3ccc(OCC(=O)O)cc3)NC(=O)[C@H]([C@H](C)O)NC(=O)CSC[C@@H](C(=O)N[C@@H](CCN)C(=O)NCCCCCCCCCCC(=O)O)NC(=O)[C@H](CO)NC(=O)[C@H](C(C)(C)O)NC(=O)[C@H](CC3CCCCC3)NC(=O)[C@H](CCN)NC(=O)[C@@H](CC(C)C)NC(=O)[C@H](CCCN)NC(=O)[C@H](Cc3ccc(OCC(=O)O)cc3)NC(=O)[C@H](Cc3ccc(-c4ccccc4)cc3)NC(=O)[C@H](Cc3ccc(OCC(=O)O)cc3)NC2=O)c1 [Compound 2205] ({CH2CO}-[aThr]Y(Carboxymethyl)D[Phe(3-Me)]Y(Carboxymethyl)[Bip]Y(Carboxymethyl)[Orn][dL][Dab][Cha][Val(3-OH)]SC[Dab][Aun]-OH; thioether N-14)
8.12	COC[C@@H]1NC(=O)CSC[C@@H](C(=O)N[C@@H](CCN)C(=O)NCCCCCCCCCCC(=O)O)NC(=O)[C@H](CO)NC(=O)[C@H](C(C)(C)O)NC(=O)[C@H](CC2CCCCC2)NC(=O)[C@H](CCN)NC(=O)[C@@H](CC(C)C)NC(=O)[C@H](CCCN)NC(=O)[C@H](Cc2ccc(OCC(=O)O)cc2)NC(=O)[C@H](Cc2ccc(-c3ccccc3)cc2)NC(=O)[C@H](Cc2ccc(OCC(=O)O)cc2)NC(=O)[C@H](Cc2cccc(C)c2)NC(=O)[C@H](CC(=O)O)NC(=O)[C@H](Cc2ccc(OCC(=O)O)cc2)NC1=O [Compound 2207] ({CH2CO}-S(Me)Y(Carboxymethyl)D[Phe(3-Me)]Y(Carboxymethyl)[Bip]Y(Carboxymethyl)[Orn][dL][Dab][Cha][Val(3-OH)]SC[Dab][Aun]-OH; thioether N-14)
